Measured values reported in the NIST ThermoML archive (doi:10.1016/j.jct.2017.03.004).
± gives the expanded uncertainty stated by the source.

Test: activity coefficient (dimensionless); of the first substance listed, at infinite dilution; xn = mol fraction of the nth substance listed
Settings: 101.33 kPa, Liquid, Chromatography, x1 = 0

Row | SMILES | activity coefficient (298.15 K) | activity coefficient (308.15 K) | activity coefficient (318.15 K) | activity coefficient (328.15 K) | activity coefficient (338.15 K) | activity coefficient (348.15 K) | activity coefficient (358.15 K) | activity coefficient (368.15 K)
1 | C1CCCCCCC1 [cyclooctane] + N#C[N-]C#N.OCCC[n+]1ccccc1 | 231 ± 16 | 215 ± 15 | 201 ± 14 | 188 ± 13 | 178 ± 12 | 168 ± 12 | 159 ± 11 | 
2 | C1CCCC1 [cyclopentane] + N#C[N-]C#N.OCCC[n+]1ccccc1 | 67 ± 4.6 | 63.5 ± 4.3 | 60.4 ± 4.1 | 57.4 ± 3.9 | 54.9 ± 3.8 | 52.7 ± 3.6 | 50.5 ± 3.5 | 
3 | CCCCCCCCCC [decane] + N#C[N-]C#N.OCCC[n+]1ccccc1 | 2100 ± 140 | 1900 ± 130 | 1730 ± 120 | 1580 ± 110 | 1450 ± 100 | 1340 ± 92 | 1240 ± 86 | 
4 | CCOCC [diethyl ether] + N#C[N-]C#N.OCCC[n+]1ccccc1 |  |  | 21.5 ± 1.5 | 21.5 ± 1.5 | 21.5 ± 1.5 | 21.5 ± 1.5 | 21.4 ± 1.5 | 21.4 ± 1.5
5 | CC(C)OC(C)C [diisopropyl ether] + N#C[N-]C#N.OCCC[n+]1ccccc1 |  |  | 105 ± 7 | 102 ± 7 | 99.8 ± 6.8 | 97.5 ± 6.7 | 95.4 ± 6.5 | 93.6 ± 6.4
6 | CCCOCCC [dipropyl ether] + N#C[N-]C#N.OCCC[n+]1ccccc1 |  |  | 92.3 ± 6.3 | 89.2 ± 6.1 | 86.8 ± 5.9 | 84.2 ± 5.8 | 81.9 ± 5.6 | 79.7 ± 5.5
7 | CCO [ethanol] + N#C[N-]C#N.OCCC[n+]1ccccc1 |  |  | 1.3 ± 0.08 | 1.3 ± 0.08 | 1.3 ± 0.08 | 1.31 ± 0.09 | 1.31 ± 0.09 | 1.31 ± 0.09
8 | CCOC(C)=O [ethyl acetate] + N#C[N-]C#N.OCCC[n+]1ccccc1 |  |  | 6.37 ± 0.43 | 6.6 ± 0.45 | 6.81 ± 0.46 | 7.02 ± 0.48 | 7.23 ± 0.49 | 7.43 ± 0.51
9 | CCc1ccccc1 [ethylbenzene] + N#C[N-]C#N.OCCC[n+]1ccccc1 |  |  | 16.1 ± 1.1 | 16.4 ± 1.1 | 16.8 ± 1.1 | 17.1 ± 1.2 | 17.4 ± 1.2 | 17.7 ± 1.2
10 | CCCCCCC [heptane] + N#C[N-]C#N.OCCC[n+]1ccccc1 | 582 ± 40 | 527 ± 36 | 481 ± 33 | 441 ± 30 | 407 ± 28 | 377 ± 26 | 351 ± 24 | 
11 | C=CCCCC [hex-1-ene] + N#C[N-]C#N.OCCC[n+]1ccccc1 | 130 ± 9 | 125 ± 9 | 120 ± 8 | 115 ± 8 | 111 ± 8 | 107 ± 7 | 103 ± 7 | 
12 | CCCCCC [hexane] + N#C[N-]C#N.OCCC[n+]1ccccc1 | 364 ± 25 | 328 ± 23 | 296 ± 20 | 269 ± 18 |  |  |  | 
13 | CC(C)c1ccccc1 [isopropylbenzene] + N#C[N-]C#N.OCCC[n+]1ccccc1 |  |  | 29.5 ± 2 | 29.7 ± 2 | 29.8 ± 2 | 30 ± 2.1 | 30.2 ± 2.1 | 30.4 ± 2.1
14 | CO [methanol] + N#C[N-]C#N.OCCC[n+]1ccccc1 |  |  | 0.682 ± 0.046 | 0.692 ± 0.047 | 0.703 ± 0.047 | 0.713 ± 0.048 | 0.725 ± 0.048 | 0.733 ± 0.049
15 | CCCC(=O)OC [methyl butanoate] + N#C[N-]C#N.OCCC[n+]1ccccc1 |  |  | 10.3 ± 0.7 | 10.6 ± 0.7 | 10.9 ± 0.7 | 11.2 ± 0.8 | 11.5 ± 0.8 | 11.7 ± 0.8
16 | COC(C)=O [methyl ethanoate] + N#C[N-]C#N.OCCC[n+]1ccccc1 |  |  | 3.28 ± 0.22 | 3.43 ± 0.23 | 3.56 ± 0.24 | 3.71 ± 0.25 | 3.84 ± 0.26 | 3.98 ± 0.27
17 | CCC(=O)OC [methyl propanoate] + N#C[N-]C#N.OCCC[n+]1ccccc1 |  |  | 5.77 ± 0.39 | 5.99 ± 0.41 | 6.2 ± 0.42 | 6.42 ± 0.44 | 6.61 ± 0.45 | 6.81 ± 0.46
18 | CC1CCCCC1 [methylcyclohexane] + N#C[N-]C#N.OCCC[n+]1ccccc1 | 210 ± 14 | 195 ± 13 | 182 ± 13 | 170 ± 12 | 160 ± 11 | 150 ± 10 | 143 ± 10 | 
19 | CCCCCCCCC [nonane] + N#C[N-]C#N.OCCC[n+]1ccccc1 | 1450 ± 100 | 1300 ± 90 | 1180 ± 81 | 1080 ± 74 | 985 ± 68 | 906 ± 62 | 837 ± 58 | 
20 | C=CCCCCCC [oct-1-ene] + N#C[N-]C#N.OCCC[n+]1ccccc1 | 391 ± 27 | 367 ± 25 | 346 ± 24 | 326 ± 22 | 310 ± 21 | 295 ± 20 | 282 ± 19 | 
21 | CCCCCCCC [octane] + N#C[N-]C#N.OCCC[n+]1ccccc1 | 930 ± 64 | 846 ± 58 | 772 ± 53 | 710 ± 49 | 654 ± 45 | 605 ± 42 | 564 ± 39 | 
22 | CCCCCO [pentan-1-ol] + N#C[N-]C#N.OCCC[n+]1ccccc1 |  |  | 4.98 ± 0.34 | 4.89 ± 0.33 | 4.81 ± 0.33 | 4.74 ± 0.32 | 4.68 ± 0.32 | 4.61 ± 0.31
23 | CCCC(C)=O [pentan-2-one] + N#C[N-]C#N.OCCC[n+]1ccccc1 |  |  | 5.58 ± 0.38 | 5.77 ± 0.39 | 5.96 ± 0.41 | 6.14 ± 0.42 | 6.33 ± 0.43 | 6.5 ± 0.44
24 | CCC(=O)CC [pentan-3-one] + N#C[N-]C#N.OCCC[n+]1ccccc1 |  |  | 5.68 ± 0.39 | 5.92 ± 0.4 | 6.15 ± 0.42 | 6.36 ± 0.43 | 6.57 ± 0.45 | 6.79 ± 0.46
25 | CCCO [propan-1-ol] + N#C[N-]C#N.OCCC[n+]1ccccc1 |  |  | 2.03 ± 0.14 | 2.03 ± 0.14 | 2.02 ± 0.14 | 2.02 ± 0.14 | 2.01 ± 0.14 | 2.01 ± 0.14
26 | CC(C)O [propan-2-ol] + N#C[N-]C#N.OCCC[n+]1ccccc1 |  |  | 2.24 ± 0.15 | 2.2 ± 0.2 | 2.18 ± 0.15 | 2.15 ± 0.15 | 2.13 ± 0.14 | 2.11 ± 0.14
27 | CCCc1ccccc1 [propylbenzene] + N#C[N-]C#N.OCCC[n+]1ccccc1 |  |  | 30.5 ± 2.1 | 30.8 ± 2.1 | 31.1 ± 2.1 | 31.3 ± 2.1 | 31.6 ± 2.2 | 31.8 ± 2.2
28 | c1ccncc1 [pyridine] + N#C[N-]C#N.OCCC[n+]1ccccc1 |  |  | 1.39 ± 0.09 | 1.48 ± 0.1 | 1.56 ± 0.1 | 1.64 ± 0.11 | 1.72 ± 0.12 | 1.8 ± 0.12
29 | C=Cc1ccccc1 [styrene] + N#C[N-]C#N.OCCC[n+]1ccccc1 |  |  | 6.93 ± 0.47 | 7.23 ± 0.49 | 7.51 ± 0.51 | 7.79 ± 0.53 | 8.06 ± 0.55 | 8.32 ± 0.57
